{
  "source": "patent US20250180508A1",
  "about": "“QUANTITATIVE LIPIDOMIC ANALYSIS, METHODS AND USES THEREOF” (McMaster University, priority 2023, published 2025)",
  "key": {"[1]": {"assay": "Targeted plasma PC analysis by MSI-NACE-MS in placebo-controlled EPA or DHA (~3 g/day) trial over 90 days", "assay_type": "in vivo, human", "details": "change in plasma PC 36:5 + PC 38:6 from baseline, mean ± standard deviation", "description": "This study was approved by the Research Ethics Board at the University of Guelph. Participant characteristics (sex, age, BMI etc.) and blood draws for O3I assessment were obtained for all participants (n=83) on study day visits. Purified EPA (KD-PUR EPA700TG) and DHA (KD-PUR DHA700TG) oils, as well as OO, were obtained from KD Pharma (Bexbach, Germany) with EPA and DHA in their triglyceride forms. […] All capsules contained 0.20% vol. tocopherol to prevent oxidation of polyunsaturated lipids. Exclusion criteria included use of FO supplements within the previous 3 months, >2 servings of fish/seafood or other omega-3 FA-rich products per week, prescribed medication use (except oral contraceptives), current smoking and history of cardiovascular disease. Participants were assigned via block randomization with stratification by sex to one of three treatment arms, namely OO supplement (n=27), EPA supplement (n=28) and DHA supplement (n=28). Participants were instructed to maintain regular exercise and dietary habits throughout the study. After overnight fasts, participants were subject to blood sampling at the Human Nutraceutical Research Unit at the University of Guelph before (baseline) and after (endpoint) of the 90-day intervention period. Blood was collected into EDTA-treated vacutainers was used to isolate plasma and erythrocytes. Samples were separated by centrifugation at 700×g at 4° C. for 15 min. […] In this case, the O3I was calculated by taking the sum of EPA and DHA relative to the sum of 15 saturated, monosaturated and polyunsaturated FAs in fasting plasma samples.\n(positive ion mode) or FA 14:0[D27]"}, "[2]": {"assay": "Omega-3 index (O3I) from erythrocyte PL FAMEs by GC-FID, EPA or DHA trial", "assay_type": "in vivo, human", "details": "for O3I (Post): 90-day period; for Average O3I status after supplementation: high-dose intake, after 90 days, both sexes", "description": "This study was approved by the Research Ethics Board at the University of Guelph. Participant characteristics (sex, age, BMI etc.) and blood draws for O3I assessment were obtained for all participants (n=83) on study day visits. Purified EPA (KD-PUR EPA700TG) and DHA (KD-PUR DHA700TG) oils, as well as OO, were obtained from KD Pharma (Bexbach, Germany) with EPA and DHA in their triglyceride forms. The FA content of these supplements was previously reported to be 75.7%±0.01% for oleic acid (18:1) in the OO supplement, 74.7%±0.09% EPA and 0.55%±0.01% DHA in the EPA supplement, and 72.3%±1.3% DHA and 1.05+0.11% EPA in the DHA supplement (91). All capsules contained 0.20% vol. tocopherol to prevent oxidation of polyunsaturated lipids. Exclusion criteria included use of FO supplements within the previous 3 months, >2 servings of fish/seafood or other omega-3 FA-rich products per week, prescribed medication use (except oral contraceptives), current smoking and history of cardiovascular disease. Participants were assigned via block randomization with stratification by sex to one of three treatment arms, namely OO supplement (n=27), EPA supplement (n=28) and DHA supplement (n=28). Participants were instructed to maintain regular exercise and dietary habits throughout the study. After overnight fasts, participants were subject to blood sampling at the Human Nutraceutical Research Unit at the University of Guelph before (baseline) and after (endpoint) of the 90-day intervention period. Blood was collected into EDTA-treated vacutainers was used to isolate plasma and erythrocytes. Samples were separated by centrifugation at 700×g at 4° C. for 15 min. A similar protocol was performed for FAME analysis from erythrocyte PL extracts following fractionation and saponification using GC-FID with normalization to heptadecanoic acid as internal standard (92). In this case, the O3I was calculated by taking the sum of EPA and DHA relative to the sum of 15 saturated, monosaturated and polyunsaturated FAs in fasting plasma samples."}, "[3]": {"details": "in vivo", "from_the_text": "(§1) In the first discovery cohort, fasting serum samples were collected from participants in a randomized, double-blinded, placebo-controlled intervention study that investigated the effects of FO supplementation on attenuating skeletal muscle disuse atrophy following leg immobilization (84). […] Briefly, this study comprised a cohort of healthy young women with a mean age of 22 years (range: 19-31 years) and BMI of 24 kg/m^2 (range: 18-26 kg/m^2) recruited locally from the Hamilton area. All participants received either a high-dose FO (3.0 g EPA and 2.0 g DHA daily; n=9) or a placebo control based on an isoenergetic and volume equivalent sunflower oil (SO) daily (n=9). Repeat fasting serum samples were collected from participants at baseline and after 28, 42 and 56 days of the intervention. All serum samples were then stored frozen at −80° C.\n(§2) Fasting serum and plasma samples were subject to a two-step chemical derivatization protocol using 9-fluorenylmethyoxycarbonyl chloride (FMOC) and 3-methyl-1-p-tolyltriazene (FMOC/MTT) as described in example 1. This reaction was introduced as a more convenient alternative to diazomethane to improve separation resolution and ionization efficiency by converting zwitter-ionic PL species that co-migrate close to the electroosmotic flow (EOF) into methylated phosphatidylcholines (PCs) and sphingomyelins (SMs) with a permanent positive charge. Briefly, in a glass sample vial, a 50 μL aliquot of serum/plasma sample was subject to a methyl-tert-butyl ether (MTBE) extraction, where 100 μL of methanol with 0.01% vol of BHT as antioxidant, and PC 16:0[D62] as internal standard were first added, and samples then mixed to induce protein precipitation. Next, 250 μL of MTBE was added and mixed prior to adding 100 μL of deionized water to induce phase separation. Samples were then centrifuged at 4000 g at 4° C. where then 200 μL of the organic layer was transferred into a new glass vial and dried down. Next, 100 μL of 0.85 mmol/L FMOC in chloroform containing PC 18:0[D70] as a second internal standard was added to dried serum/plasma extracts and mixed for 5 min at room temperature before drying down again. Next, 50 μL of MTBE containing 450 mmol/L of MTT was added to the glass vial with the lid sealed with Teflon tape. This vessel was then heated to 60° C. for 60 min."}, "[4]": {"assay": "Pooled sub-group untargeted serum lipid profiling by MSI-NACE-MS, high-dose FO supplementation vs placebo/baseline", "details": "pooled serum extracts; for Fold-change (average fold-change in ion response for serum lipid following FO supplementation to baseline): high-dose FO (EPA 3 g/day + DHA 2 g/day) vs baseline, underivatized, negative ion mode; for Change in serum lipid response following FO supplementation (in words): high-dose FO vs baseline/placebo, MSI-NACE-MS positive or negative ion mode", "from_the_text": "as §1, §2"}, "[5]": {"details": "change from baseline, 3.0 g/day, in %"}, "[6]": {"details": "change in erythrocyte PL membrane derived O3I from baseline, females (F), mean ± standard deviation"}, "[7]": {"details": "change in erythrocyte PL membrane derived O3I from baseline, males (M), mean ± standard deviation"}, "[8]": {"details": "difference in O3I status from baseline, similar dose of EPA or DHA"}},
  "note": "Several values for one entry are separate records, joined by “and”; a condition that tells them apart may be missing. Equal entries are not always repeated. Where two headings read alike, the source gives them in different places.",
  "data": [
    {"compound": "CC/C=C\\C/C=C\\C/C=C\\C/C=C\\C/C=C\\C/C=C\\CCC(=O)O", "note": "[DHA, docosahexaenoic acid]", "values": [
      {"measurement": "Δ(PC 36:5 + PC 38:6)", "setting": "[1]; females (F)", "value": "26.11 ± 16.15"},
      {"measurement": "Δ(PC 36:5 + PC 38:6)", "setting": "[1]; males (M)", "value": "25.80 ± 20.88"},
      {"measurement": "Greater increase in O3I from baseline (relative efficacy) as compared to EPA", "setting": "[2]; DHA vs EPA at the same dose level", "value": "63% and 64%"},
      {"measurement": "O3I (Post)", "setting": "[2]; Female, 3.0 g/day", "value": "8.04 ± 1.34"},
      {"measurement": "O3I (Post)", "setting": "[2]; Male, 3.0 g/day", "value": "8.73 ± 0.97"},
      {"measurement": "ΔO3I", "setting": "[2]; [5]", "value": "4.90 ± 1.33"},
      {"measurement": "ΔO3I", "setting": "[2]; [6]", "value": "4.31 ± 1.26"},
      {"measurement": "ΔO3I", "setting": "[2]; [7]", "value": "5.57 ± 1.10"},
      {"measurement": "ΔO3I", "setting": "[2]; [8]", "value": "4.90±1.33", "unit": "%"},
      {"measurement": "Average O3I status after supplementation", "setting": "[2]", "value": "6.49±1.17", "unit": "%"},
      {"measurement": "Change in serum lipid response following FO supplementation (in words)", "setting": "[3]", "value": "more modest increase"}
    ]},
    {"compound": "CC/C=C\\C/C=C\\C/C=C\\C/C=C\\C/C=C\\CCCC(=O)O", "note": "[EPA, eicosapentaenoic acid]", "values": [
      {"measurement": "Δ(PC 36:5 + PC 38:6)", "setting": "[1]; females (F)", "value": "33.71 ± 16.15"},
      {"measurement": "Δ(PC 36:5 + PC 38:6)", "setting": "[1]; males (M)", "value": "19.30 ± 14.26"},
      {"measurement": "O3I (Post)", "setting": "[2]; Female, 3.0 g/day", "value": "6.75 ± 1.20"},
      {"measurement": "O3I (Post)", "setting": "[2]; Male, 3.0 g/day", "value": "6.23 ± 1.10"},
      {"measurement": "ΔO3I", "setting": "[2]; [5]", "value": "2.99 ± 1.19"},
      {"measurement": "ΔO3I", "setting": "[2]; [6]", "value": "3.14 ± 1.25"},
      {"measurement": "ΔO3I", "setting": "[2]; [7]", "value": "2.83 ± 1.14"},
      {"measurement": "ΔO3I", "setting": "[2]; [8]", "value": "2.99 ± 1.19", "unit": "%"},
      {"measurement": "Average O3I status after supplementation", "setting": "[2]", "value": "8.30±1.21", "unit": "%"},
      {"measurement": "Fold-change (average fold-change in ion response for serum lipid following FO supplementation to baseline)", "setting": "[4]", "value": 4.16},
      {"measurement": "Change in serum lipid response following FO supplementation (in words)", "setting": "[4]", "value": "more modest increase"}
    ]},
    {"compound": "CCCCCCCCCCCC(=O)O", "note": "[FA 12:0]", "values": [
      {"measurement": "Fold-change (average fold-change in ion response for serum lipid following FO supplementation to baseline)", "setting": "[4]", "value": 0.86}
    ]},
    {"compound": "CCCCCCCCCCCCCC(=O)O", "note": "[FA 14:0]", "values": [
      {"measurement": "Fold-change (average fold-change in ion response for serum lipid following FO supplementation to baseline)", "setting": "[4]", "value": 0.60}
    ]},
    {"compound": "CCCCCCCCCCCCCCC(=O)O", "note": "[FA 15:0]", "values": [
      {"measurement": "Fold-change (average fold-change in ion response for serum lipid following FO supplementation to baseline)", "setting": "[4]", "value": 0.85}
    ]},
    {"compound": "CCCCCCCCCCCCCCCCC(=O)O", "note": "[FA 17:0]", "values": [
      {"measurement": "Fold-change (average fold-change in ion response for serum lipid following FO supplementation to baseline)", "setting": "[4]", "value": 0.85}
    ]},
    {"compound": "CCCCCCCCCCCCCCCCCC(=O)O", "note": "[FA 18:0, stearic acid]", "values": [
      {"measurement": "Fold-change (average fold-change in ion response for serum lipid following FO supplementation to baseline)", "setting": "[4]", "value": 0.82}
    ]},
    {"compound": "CCCCCCCC/C=C\\CCCCCCCC(=O)O", "note": "[FA 18:1, oleic acid]", "values": [
      {"measurement": "Fold-change (average fold-change in ion response for serum lipid following FO supplementation to baseline)", "setting": "[4]", "value": 0.83}
    ]},
    {"compound": "PE 38:5", "values": [
      {"measurement": "Fold-change (average fold-change in ion response for serum lipid following FO supplementation to baseline)", "setting": "[4]", "value": 0.49},
      {"measurement": "Change in serum lipid response following FO supplementation (in words)", "setting": "[4]", "value": "did not exhibit increases"}
    ]},
    {"compound": "docasapentaenoic acid [FA 22:5]", "values": [
      {"measurement": "Fold-change (average fold-change in ion response for serum lipid following FO supplementation to baseline)", "setting": "[4]", "value": 0.57},
      {"measurement": "Change in serum lipid response following FO supplementation (in words)", "setting": "[4]", "value": "did not respond to supplementation"}
    ]}
  ]
}
